Drawing on PubChem BioAssay AID179 (DTP/NCI, 2004), this text covers EC50, IC50 and outcome for 28 compounds.

The source made the active and inactive calls.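 Rule for the calls: active = compounds giving half or more protection of infected cells from virus-caused growth loss, again on retest; inactive = the rest.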 Some results are limits rather than exact numbers.

The test system of this assay is CEM cells HIV-1 protection, formazan growth assay. Put plainly: NCI AIDS Antiviral Assay. As to conditions: for IC50: measured here: growth of uninfected CEM cells. Summed up:
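Protection of CEM cells against HIV-1 was scored from cell growth (soluble formazan) across five concentrations, with parallel uninfected cells. Lack of protection may reflect toxicity.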

As usually defined, the EC50 is the concentration needed to bring the measured effect to its halfway point. What is called IC50 is the concentration needed to halve the response being measured. Low values mean greater potency in that assay, high ones weaker potency in that assay. With `CSc1nc2c(c(=O)n1C)N=C(c1ccc([N+](=O)[O-])cc1)CC(c1ccccc1)N2` (configuration not stated), the EC50 is more than 200 µM and the IC50 is 155 µM.

As to `CNC(=O)C(C(=O)NC)n1cnc(C(=O)OC)c1O`, the EC50 is more than 200 µM and the IC50 was more than 200 µM.

As for `CSc1cnc2ccccc2c1Sc1c[nH]c2ccccc2c1=O`, the EC50 is more than 14.8 µM and the IC50 was determined as 13.2 µM.

Take `S=C1N=C(Cl)C2(NN1)c1ccccc1-c1ccccc12`: the EC50 was more than 200 µM and the IC50 is more than 200 µM.

With `COc1ccc([C@@H]2C[C@@H]3C(=O)OC(=O)[C@@H]3c3c2c2ccccc2n3C)cc1`, the EC50 was more than 52.5 µM and the IC50 is more than 52.5 µM.

Consider `N=C(N)CCNC(=O)c1c[nH]c2nc(N)[nH]c(=O)c12`, for which the EC50 is more than 347 µM and the IC50 was more than 347 µM.

For the compound `CCOC(=O)/C(C#N)=C/c1ccccc1F`, the EC50 was more than 309 µM and the IC50 was more than 309 µM.

In the case of `COC(=O)CC(CNC(=O)OCc1ccccc1)OCc1ccc(OC)cc1` (configuration not stated), the EC50 is more than 200 µM and the IC50 is more than 200 µM.

For `O=c1oc2c(ccc3c(O)cccc32)c2c1CCCC2`, the EC50 is more than 200 µM and the IC50 is more than 200 µM.

In the case of `CCC1CN2CCc3cc(OC)c(OC)cc3C2CC1CC1c2cc(OC)c(OC)cc2CCN1C(=O)C(Cc1c[nH]c2ccccc12)NC(=O)OC(C)(C)C` (configuration not stated), the result was inactive.

Take `CC(C)(C)OC(=O)NNC(=O)C1Cc2ccccc2OC1=O` (configuration not stated): the EC50 was more than 200 µM and the IC50 was more than 200 µM.

As to `O=C(COC(=O)c1cccc2c(=O)c3ccccc3[nH]c12)Nc1ccccc1`, the result was inactive.

Regarding `CC1CC(C)(C)NC2(CCCC2)N1` (configuration not stated), the EC50 was more than 200 µM and the IC50 was more than 200 µM.

As to `N#C/C(=C\c1cccc2ccccc12)c1ccc(Cl)cc1`, the EC50 was more than 200 µM and the IC50 came to 95.5 µM.

Regarding `CCOC(OC(C)=O)[C@@H]1C=C[C@H](C)N(c2ccc([N+](=O)[O-])cc2)O1` (some centres not stated), the EC50 is more than 40.7 µM and the IC50 was 2.24 µM.

For the compound `O=C1C(O)=C(c2ccc(Br)cc2)C(=O)C(O)=C1c1ccc(Br)cc1`, the EC50 was more than 58.9 µM and the IC50 was 22.4 µM.

On to `N.N.N.N.N.N.[Br-].[Co+3]`, for which the result was inactive.

Consider `CCCCCCCCO/N=C\c1c2c(O)c3c(O)c(C)c4c(c3c1O)C(=O)C(C)(O/C=C\C(OC)C(C)C(OC(C)=O)C(C)C(O)C(C)C(O)C(C)/C=C\C=C(\C)C(=O)N2)O4` (configuration not stated), for which the EC50 was more than 200 µM and the IC50 was 3.89 µM.

For `COC(=O)c1ccccc1/C=C1/Cc2cccc(C)c2C1=O`, the EC50 is more than 200 µM and the IC50 was more than 200 µM.

For the compound `CC(=O)Oc1ccc2c(-c3ccccc3)c(Oc3ccc(Cl)cc3)c(=O)oc2c1`, the EC50 was more than 200 µM and the IC50 came out at 15.8 µM.

For `O=C1NC(=O)/C(=C\c2ccncc2)N1`, the EC50 was more than 200 µM and the IC50 was more than 200 µM.

In the case of `N=C(N)Oc1ccc(Cl)cc1`, the EC50 was more than 200 µM and the IC50 stood at 26.9 µM.

With `O=C(Cc1csc2[n+]1C(=O)/C(=C/c1cccc([N+](=O)[O-])c1)S2)Nc1ccccc1`, the outcome was inactive.

As for `CSc1nc2c(c(O)c(C)c(=O)n2C2OC(COC(C)=O)C(OC(C)=O)C(OC(C)=O)C2OC(C)=O)c(=O)n1C` (configuration not stated), the EC50 was more than 44.7 µM and the IC50 was more than 44.7 µM.

Turning to `O=C1NC(=S)NC(=O)C1=Cc1ccc(Cl)c(Cl)c1`, the EC50 was more than 87.1 µM and the IC50 is more than 87.1 µM.

For `O=C(CO)CC(=O)C(=O)Nc1ccccc1`, the EC50 was more than 151 µM and the IC50 was more than 151 µM.

For the compound `COC(=N)C12C(N)=NC(OC)(OC)C1(C#N)C21C(=O)N(c2ccccc2)N=C1C` (configuration not stated), the EC50 is more than 200 µM and the half-inhibitory concentration (IC50) was 97.7 µM.

Take `Cc1ccc(C)c(COCCOCn2c(=O)[nH]c(=O)c3cc(Br)ccc32)c1`: the EC50 is more than 200 µM and the IC50 is more than 200 µM.
